Laboratory results from article PMC11645267, “Novel pharmacologic inhibition of lysine-specific demethylase 1 as a potential therapeutic for glioblastoma” (Cancer Gene Therapy, 2024).

Assays:
[1] = tested on: GSC1228; assay: Cell proliferation assay (CellTiter-Glo 3D); type: cell-based; conditions: GSC1228, 96 h; read-out: Growth inhibitory IC50 (GI50)
Method: (§1) Supplementary materials and methods […]
(§2) Cell lines and culture conditions […]
(§3) 2013 #1009}{Katsushima, 2016 #1156}. GSC cells were cultured in Neurobasal Medium (Life Technologies, Carlsbad, CA, USA) containing N2 and B27 supplements (Life Technologies) along with human recombinant basic fibroblast growth factor and epidermal growth factor (20 ng/ml each; R&D Systems, Minneapolis, MN, USA). Cells were cultured at 37°C in a humidified incubator with 5% CO2.
(§4) For the cell proliferation assay, cells at a density of 1 × 10^5 cells per well were seeded before treatment with LSD1 inhibitors. Cell proliferation was measured after 4 days using a Cell Counting Kit 8 (Dojindo, Kumamoto, Japan) according to the manufacturer ’s […]
(§5) instructions. For GSC cells, the CellTiter-Glo 3D Viability Assay (Promega, Madison, WI, USA) was used to measure the living cells. […]

[2] = tested on: GSC222; assay: Cell proliferation assay (CellTiter-Glo 3D); type: cell-based; conditions: GSC222, 96 h; read-out: Growth inhibitory IC50 (GI50)
Method: as §1, §2, §3, §4, §5

[3] = tested on: GSC316; assay: Cell proliferation assay (CellTiter-Glo 3D); type: cell-based; conditions: GSC316, 96 h; read-out: Growth inhibitory IC50 (GI50)
Method: as §1, §2, §3, §4, §5

[4] = tested on: F3; assay: Cell proliferation assay (Cell Counting Kit 8); type: cell-based; conditions: 96 h; F3 (normal neural stem cell line), 4 days; read-out: Growth inhibitory IC50 (GI50)
From the text: as §1
(§6) Cell lines and culture conditions
(§7) Glioblastoma cell line, LN229, was obtained from the American Type Culture Collection (ATCC, Manassas, VA, USA). Normal fibroblast cell lines TIG3 and WI-38, TM31 (low grade glioma) were obtained from the RIKEN Bioresource Research Center (Tsukuba, Japan). Onda10 and KINGS1 (low grade glioma) cell lines were obtained from the Japanese Collection of Research Bioresources (Ibaraki, Japan). F3 is utilized as a neural stem cell line{Kim, 2004 #1412}{Natsume, 2013 #1009}. All cells were maintained in DMEM medium (Wako, Osaka, Japan) containing 5% fetal bovine serum (FBS, Thermo Fisher Scientific, Waltham, MA, USA) and 1% penicillin-streptomycin (Wako). […]
as §4, §5

[5] = tested on: KINGS1; assay: Cell proliferation assay (Cell Counting Kit 8); type: cell-based; conditions: Homo sapiens, KINGS-1, 96 h; KINGS1 (grade III glioma), 4 days; read-out: Growth inhibitory IC50 (GI50)
From the text: as §1, §6, §7, §4, §5

[6] = tested on: LN229; assay: Cell proliferation assay (Cell Counting Kit 8); type: cell-based; conditions: Homo sapiens, LN-229, 96 h; LN229 (GBM cell line), 4 days; read-out: Growth inhibitory IC50 (GI50)
From the text: as §1, §6, §7, §4, §5

[7] = tested on: Onda10; assay: Cell proliferation assay (Cell Counting Kit 8); type: cell-based; conditions: 96 h; Onda10 (grade III glioma), 4 days; read-out: Growth inhibitory IC50 (GI50)
From the text: as §1, §6, §7, §4, §5

[8] = tested on: TIG3; assay: Cell proliferation assay (Cell Counting Kit 8); type: cell-based; conditions: Homo sapiens, TIG-3, 96 h; TIG3 (normal fibroblast), 4 days; read-out: Growth inhibitory IC50 (GI50)
From the text: as §1, §6, §7, §4, §5

[9] = tested on: TM31; assay: Cell proliferation assay (Cell Counting Kit 8); type: cell-based; conditions: 96 h; TM31 (grade III glioma), 4 days; read-out: Growth inhibitory IC50 (GI50)
From the text: as §1, §6, §7, §4, §5

[10] = tested on: WI38; assay: Cell proliferation assay (Cell Counting Kit 8); type: cell-based; conditions: Homo sapiens, WI-38, 96 h; WI38 (normal fibroblast), 4 days; read-out: Growth inhibitory IC50 (GI50)
From the text: as §1, §6, §7, §4, §5

[11] = target: T1, LSD2 (Homo sapiens, UniProt Q8NB78); set-up: method as in PMID 32166890; conditions: cited from earlier work
T1 sequence (Q8NB78 1-822): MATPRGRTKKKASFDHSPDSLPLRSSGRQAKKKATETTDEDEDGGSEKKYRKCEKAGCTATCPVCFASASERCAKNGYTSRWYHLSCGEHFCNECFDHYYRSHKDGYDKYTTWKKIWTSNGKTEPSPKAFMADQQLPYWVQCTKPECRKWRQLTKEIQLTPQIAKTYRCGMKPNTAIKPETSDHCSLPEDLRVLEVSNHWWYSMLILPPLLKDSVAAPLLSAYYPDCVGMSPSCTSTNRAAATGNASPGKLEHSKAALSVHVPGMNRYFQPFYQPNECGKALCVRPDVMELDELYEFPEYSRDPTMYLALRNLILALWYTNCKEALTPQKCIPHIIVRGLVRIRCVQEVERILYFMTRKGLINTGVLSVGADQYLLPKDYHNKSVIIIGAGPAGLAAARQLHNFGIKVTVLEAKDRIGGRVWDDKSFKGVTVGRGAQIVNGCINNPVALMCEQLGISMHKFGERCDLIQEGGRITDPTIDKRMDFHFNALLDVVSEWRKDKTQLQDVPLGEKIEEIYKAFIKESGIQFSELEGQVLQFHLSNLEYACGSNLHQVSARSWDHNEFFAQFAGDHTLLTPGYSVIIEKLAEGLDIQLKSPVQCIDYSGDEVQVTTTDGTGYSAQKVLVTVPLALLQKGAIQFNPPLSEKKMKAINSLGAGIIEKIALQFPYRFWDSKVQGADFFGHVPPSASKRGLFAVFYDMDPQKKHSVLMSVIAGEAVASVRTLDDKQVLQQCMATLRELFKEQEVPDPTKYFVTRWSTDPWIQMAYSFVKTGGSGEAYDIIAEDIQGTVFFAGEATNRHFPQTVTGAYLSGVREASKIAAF

[12] = target: T2, MAO-A (Homo sapiens, UniProt P21397); conditions: cited from earlier work
T2 sequence (P21397 1-527): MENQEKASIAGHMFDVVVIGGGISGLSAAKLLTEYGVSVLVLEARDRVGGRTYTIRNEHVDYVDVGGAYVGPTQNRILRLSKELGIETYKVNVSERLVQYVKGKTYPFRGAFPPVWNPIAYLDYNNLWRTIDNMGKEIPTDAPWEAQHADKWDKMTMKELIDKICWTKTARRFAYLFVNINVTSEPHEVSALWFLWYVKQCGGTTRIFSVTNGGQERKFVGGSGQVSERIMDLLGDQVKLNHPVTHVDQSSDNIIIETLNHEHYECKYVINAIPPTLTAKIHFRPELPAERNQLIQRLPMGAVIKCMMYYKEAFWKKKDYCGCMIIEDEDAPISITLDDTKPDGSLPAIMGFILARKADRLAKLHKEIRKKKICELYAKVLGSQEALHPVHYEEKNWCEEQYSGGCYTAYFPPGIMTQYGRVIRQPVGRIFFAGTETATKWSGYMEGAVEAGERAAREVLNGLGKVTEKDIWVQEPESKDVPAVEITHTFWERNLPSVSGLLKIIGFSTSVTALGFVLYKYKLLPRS

[13] = target: T3, MAO-B (Homo sapiens, UniProt P27338); conditions: cited from earlier work
T3 sequence (P27338 1-520): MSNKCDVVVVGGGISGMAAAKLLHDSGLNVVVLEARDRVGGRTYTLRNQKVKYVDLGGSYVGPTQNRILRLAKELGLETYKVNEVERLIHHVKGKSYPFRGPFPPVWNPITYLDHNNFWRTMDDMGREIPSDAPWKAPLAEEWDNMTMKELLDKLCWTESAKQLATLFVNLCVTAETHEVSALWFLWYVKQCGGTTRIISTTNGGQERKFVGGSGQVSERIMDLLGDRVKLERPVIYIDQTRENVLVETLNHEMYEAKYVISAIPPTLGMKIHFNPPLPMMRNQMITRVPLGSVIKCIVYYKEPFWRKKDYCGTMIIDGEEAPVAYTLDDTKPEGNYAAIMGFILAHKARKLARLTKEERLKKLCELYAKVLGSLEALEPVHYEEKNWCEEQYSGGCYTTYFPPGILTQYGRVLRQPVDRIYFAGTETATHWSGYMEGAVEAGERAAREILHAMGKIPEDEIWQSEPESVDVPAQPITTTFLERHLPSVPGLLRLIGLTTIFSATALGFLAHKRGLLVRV

SMILES: NC1CC1c1cc(F)cc(F)c1OCc1ccccc1 (stereo not drawn) [S2101]
- IC50 [1]: > 40 µM
- IC50 [2]: > 40 µM
- IC50 [3]: > 40 µM
- IC50 [4]: 26 µM
- IC50 [5]: 19 µM
- IC50 [6]: 12 µM
- IC50 [7]: 25 µM
- IC50 [8]: > 40 µM
- IC50 [9]: 6.9 µM
- IC50 [10]: > 40 µM
- Ki [11]: > 250 µM

SMILES: CN1CCN(C(=O)CNC2CC2c2cc(F)cc(F)c2OCc2ccccc2)CC1 (stereo not drawn) [S2157]
- IC50 [1]: 19.7 µM
- IC50 [2]: > 40 µM
- IC50 [3]: > 40 µM
- IC50 [4]: 36.5 µM
- IC50 [5]: > 40 µM
- IC50 [6]: > 40 µM
- IC50 [7]: > 40 µM
- IC50 [8]: 33.3 µM
- IC50 [9]: 27 µM
- IC50 [10]: > 40 µM
- Ki [11]: > 250 µM
- Ki [12]: > 250 µM
- Ki [13]: > 250 µM
